Measured values taken from patent publication US20240277890A1, “ANTIMICROBIAL ARTICLES COMPRISING POLYURETHANE” (Amicoat AS, priority 2021, published 2024).
Values after ≈ are worked out from the molar mass of the structure shown.

Tested on: Propionibacterium acnes- antibiotic-resistant clinical isolate
Conditions: P. acnes antibiotic-resistant

CCCCCCNC(=O)[C@H](CCCNC(=N)N)NC(=O)[C@H](Cc1c(C(C)(C)C)[nH]c2c(C(C)(C)C)cc(C(C)(C)C)cc12)NC(=O)[C@@H](N)CCCNC(=N)N [Compound 8]
MIC: 2 µg/mL (≈ 2.6 µM)
